Assay results from patent publication US4044134A, “Fused pyrimidin-4(3H)-ones as antiallergy agents” (Pfizer Inc., priority 1976, dated 1977).
Counter-ions that a name gives are not always drawn. Like-named read-outs stand apart in the source and are kept apart here.

Test system: passive cutaneous anaphylaxis (PCA) reaction
Test: passive cutaneous anaphylaxis (PCA) test, i.v. or oral administration
Format: in vivo, male Charles River Wistar rats
Conditions: Rattus norvegicus, read-out: degree (%) of protection, PCA test
Description: In the PCA test, normal animals are injected intradermally (i.d.) with antibodies contained in serum obtained from actively sensitized animals. The animals are then challenged intravenously with antigen mixed with a dye such as Evans' Blue. The increased capillary-permeability caused by the antigen-antibody reaction causes the dye to leak from the site of the antibody injection. The test animals are then asphyxiated and the intensity of the reaction determined by measuring the diameter and intensity of the blue coloration on the inner surface of the animals skin. […] The ability of agents to interfere with PCA reactions is measured in male Charles River Wistar rats, 170-210 g. […] Hyperimmune antisera to hen egg albumin is prepared according to Orange, et al., J. Exptl. […] Forty-eight hours prior to antigen challenge the reaginic antisera is injected intradermally (i.d.) into the shaved skin of a normal rat's back; 5 hours before challenge the hyperimmune antisera is similarly injected; 5 hours later, at a third site, 60 mcg. histamine dihydrochloride is injected i.d. as a check for antihistaminic and unspecific types of blockage; the compounds of the instant invention or saline are then administered i.v. and immediately followed by 2.5 mg. Evan's blue dye and 5 mg. egg albumin in saline. In the case of oral administration Evan's blue dye and egg albumen are given five minutes after administration of the drug. Thirty minutes later the animals are asphyxiated using chloroform and the skin of the back removed and reversed for observation. A score is assigned each injection site equal to the product of the diameter of the site in mm. and a grade of 0.1, 0.5, 1, 2, 3 or 4 proportional to intensity of dye coloration. The scores for a given injection site are summed for each group of 8 animals and compared to the saline treated controls. The difference is expressed as percent blockade due to the compound employed. […] Disodium cromoglycate, a commerial antiallergy agent, is included for comparison. [drawing 3]

Structure (SMILES) | inhibition in vivo at 0.03 mg/kg (iv, I.V.) | inhibition in vivo at 3 mg/kg (iv, I.V.) | inhibition in vivo at 10 mg/kg (Oral) | inhibition in vivo at 0.3 mg/kg (iv, I.V.) | inhibition in vivo at 30 mg/kg (Oral) | other results
CCOC(=O)c1nc2nc3cc(OCC)c(OCC)cc3cc2c(=O)[nH]1 [COOC2 H5/H/H/OC2 H5/OC2 H5/H] | 60% | 100% | 81% | – | – | inhibition in vivo at 0.003 mg/kg (iv, I.V.): 21%; inhibition in vivo at 0.01 mg/kg (iv, I.V.): 43%; inhibition in vivo at 0.1 mg/kg (iv, I.V.): 90%; inhibition in vivo at 0.3 mg/kg (Oral): 42%; inhibition in vivo at 1 mg/kg (Oral): 40%; inhibition in vivo at 3 mg/kg (Oral): 64%
CCOC(=O)c1nc2nc3cc(OCc4ccccc4)c(OCC)cc3cc2c(=O)[nH]1 [COOC2 H5/H/H/OC2 H5/OC7 H7/H] | – | 71% | 0% | 30% | 0% | inhibition in vivo at 0.1 mg/kg (iv, I.V.): 3%
CCOC(=O)c1nc2nc3cc(OC)c(OCC)cc3cc2c(=O)[nH]1 [COOC2 H5/H/H/OC2 H5/OCH3/H] | 85% | 100% | 92% | – | – | inhibition in vivo at 0.003 mg/kg (iv, I.V.): 50%; inhibition in vivo at 0.01 mg/kg (iv, I.V.): 72%; inhibition in vivo at 0.1 mg/kg (iv, I.V.): 99%; inhibition in vivo at 0.3 mg/kg (Oral): 56%; inhibition in vivo at 1 mg/kg (Oral): 76%; inhibition in vivo at 3 mg/kg (Oral): 83%
CCOC(=O)c1nc2nc3ccc(OCc4ccccc4)cc3cc2c(=O)[nH]1 [COOC2 H5/H/H/OC7 H7/H/H, ethyl 7-benzyloxypyrimido-[4,5-b]quinolin-4(3H) one-2-carboxylate] | – | 85% | 60% | 23% | – | inhibition in vivo at 3 mg/kg (Oral): 3%
CCOC(=O)c1nc2nc3ccc(OC)cc3cc2c(=O)[nH]1 [COOC2 H5/H/H/OCH3/H/H, Ethyl 7-Methoxypyrimido[4,5-b]-Quinolin-4(3H)-One-2-Carboxylate] | – | 100% | 43% | 87% | – | inhibition in vivo at 0.1 mg/kg (iv, I.V.): 68%; inhibition in vivo at 3 mg/kg (Oral): 32%
CCOC(=O)c1nc2nc3c(OC)cc(OC)cc3cc2c(=O)[nH]1 [COOC2 H5/H/H/OCH3/H/OCH3] | 14% | 97% | – | 38% | 41% | –
CCOC(=O)c1nc2nc3cc(OCC)c(OC)cc3cc2c(=O)[nH]1 [COOC2 H5/H/H/OCH3/OC2 H5/H, Ethyl 7-methoxy-8-ethoxypyrimido[4,5-b]quinoline-4(3H)-one-2-carboxylate] | 85% | 97% | 73% | – | 80% | inhibition in vivo at 0.003 mg/kg (iv, I.V.): 66%; inhibition in vivo at 0.01 mg/kg (iv, I.V.): 57%; inhibition in vivo at 0.1 mg/kg (iv, I.V.): 94%; inhibition in vivo at 0.3 mg/kg (Oral): 31%; inhibition in vivo at 1 mg/kg (Oral): 44%; inhibition in vivo at 3 mg/kg (Oral): 52%
CCOC(=O)c1nc2nc3cc(OCc4ccccc4)c(OC)cc3cc2c(=O)[nH]1 [COOC2 H5/H/H/OCH3/OC7 H7/H, ethyl 7-methoxy-8-benzyloxypyrimido[4,5-b]quinolin-4(3H)one-2-carboxylate] | – | 94% | – | 23% | – | –
CCOC(=O)c1nc2nc3c(OC)c(OC)c(OC)cc3cc2c(=O)[nH]1 [COOC2 H5/H/H/OCH3/OCH3/OCH3] | 33% | 88% | 0% | 23% | – | –
CCOC(=O)c1nc2nc3cc(O)c(OC)cc3cc2c(=O)[nH]1 [COOC2 H5/H/H/OCH3/OH/H, Ethyl 7-Methoxy-8-Hydroxypyrimido[4,5-b]Quinolin-4(3H)One-2-Carboxylate] | – | 100% | – | 100% | – | inhibition in vivo at 0.003 mg/kg (iv, I.V.): 0%
CCOC(=O)c1nc2nc3ccc(O)cc3cc2c(=O)[nH]1 [COOC2 H5/H/H/OH/H/H, ethyl 7-hydroxypyrimido [4,5-b]quinolin-4(3H)one-2-carboxylate hemitrifluoroacetate] | 21% | – | 13% | 92% | – | inhibition in vivo at 3 mg/kg (Oral): 4%
CCOC(=O)c1nc2nc3cc(OC)c(O)cc3cc2c(=O)[nH]1 [COOC2 H5/H/H/OH/OCH3/H, Ethyl 7-Hydroxy-8-Methoxypyrimido[4,5-b]Quinolin-4(3H)One-2-Carboxylate Trifluoroacetate] | 97% | – | – | – | 6% | inhibition in vivo at 0.0003 mg/kg (iv, I.V., 0.0003 mg/kg): 38%; inhibition in vivo at 0.003 mg/kg (iv, I.V.): 94%; inhibition in vivo at 0.01 mg/kg (iv, I.V.): 98%
CCOC(=O)c1nc2nc3ccc(SC)cc3cc2c(=O)[nH]1 [COOC2 H5/H/H/SCH3/H/H, Ethyl 7-Methylthiopyrimido[4,5-b]quinolin-4(3H)-One-2-Carboxylate] | 8% | 88% | 66% | 91% | 100% | inhibition in vivo at 1 mg/kg (Oral): 0%; inhibition in vivo at 3 mg/kg (Oral): 21%
CCOC(=O)c1nc2nc3ccc([S+](C)[O-])cc3cc2c(=O)[nH]1 (stereo not drawn) [COOC2 H5/H/H/SOCH3/H/H, Ethyl 7-Methylsulfinylpyrimido[4,5-b]quinoline-4(3H)-One-2-Carboxylate] | 0% | 100% | – | 58% | 12% | –
CCOC(=O)c1nc2nc3c(OC)ccc(OC)c3cc2c(=O)[nH]1 [COOC2 H5/H/OCH3/H/H/OCH3] | 0% | 100% | – | 25% | 23% | –
COc1cc2cc3c(=O)[nH]c(C(=O)OCCO)nc3nc2cc1OC [COOCH2 CH2 OH/H/H/OCH3/OCH3/H, 2-hydroxyethyl 7,8-Dimethoxy-pyrimidin[4,5-b]quinolin-4-(3H)-One-2-Carboxylate] | 92% | 97% | 65% | 94% | – | –
O=C(O)c1nc2cc3ccccc3cc2c(=O)[nH]1 [COOH/H/H/H/H (Formula II)] | – | 36% | 33% | – | 0% | inhibition in vivo at 1 mg/kg (iv, I.V.): 14%; inhibition in vivo at 10 mg/kg (iv, I.V.): 100%; inhibition in vivo at 100 mg/kg (Oral): 9%
O=C(O)c1nc2nc3ccc(O)cc3cc2c(=O)[nH]1 [COOH/H/H/OH/H/H, 7-hydroxypyrimido[4,5-b]quinolin-4(3H)one-2-carboxylic acid] | 91% | 100% | – | – | – | inhibition in vivo at 0.003 mg/kg (iv, I.V.): 4%
COc1cc2nc3nc(C(=O)O)[nH]c(=O)c3cc2cc1O [COOH/H/H/OH/OCH3/H, 7-Hydroxy-8-Methoxypyrimido[4,5-b]Quinolin-4(3H)One-2-Carboxylic Acid] | – | 100% | – | – | – | inhibition in vivo at 0.003 mg/kg (iv, I.V.): 90%; inhibition in vivo at 0.01 mg/kg (iv, I.V.): 86%
O=C(O)c1nc2nc3ccccc3cc2c(=O)[nH]1 [COONa/H/H/H/H/H, Pyrimido[4,5-b]Quinolin-4(3H)-One-2-Carboxylic Acid Disodium Salt] | – | – | 0% | 68% | – | inhibition in vivo at 1 mg/kg (iv, I.V.): 92%; inhibition in vivo at 100 mg/kg (Oral): 96%
COc1cc2cc3c(=O)[nH]c(C(=O)O)nc3nc2cc1OC [COONa/H/H/OCH3/OCH3/H] | 96% | – | 17% | – | – | inhibition in vivo at 0.01 mg/kg (iv, I.V.): 71%; inhibition in vivo at 0.1 mg/kg (iv, I.V.): 100%
CCOC(=O)CNC(=O)c1nc2nc3cc(OC)c(OC)cc3cc2c(=O)[nH]1 [N-carbethoxymethyl 7,8-dimethoxypyrimido-[4,5-b]quinolin-4(3H)-one-2-carboxamide] | – | 32% | – | – | – | inhibition in vivo at 30 mg/kg (iv, I.V.): 96%
CCOC(=O)c1nc2ncccc2c(=O)[nH]1 [OC2 H5/H/H/H (Formula III), Ethyl Pyrido[2,3-d]Pyrimidin-4(3H)-One-2-Carboxylate] | – | – | – | – | – | inhibition in vivo at 10 mg/kg (iv, I.V.): 95%; inhibition in vivo at 100 mg/kg (Oral): 0%
O=c1[nH]cnc2nc3ccccc3cc12 [pyrimido[4,5-b]quinolin-4(3H)-one, reference compound] | – | 33% | – | – | – | –
